Experiments:
Assay type in all cases: cell-based, human
BJ primary cells = assay: Calcein AM viability assay, BJ cells; details: 16-point two-fold dilution
Description: (§1) Described here is work carried out to identify compounds with increased potency or activity in the presence of hTERT, LT, ST, E6, E7 or RAS^V12. Although the work described herein made use of hTERT, LT, ST, E6, E7 and RAS^V12 as transforming genes, future studies can make use of a wide variety of cancer-associated alleles using this methodology in order to define the signaling networks that involve many oncogenes and tumor suppressors. […] Cell viability was measured using the dye calcein acetoxymethyl ester (calcein AM) (Wang et al., 1993, Hum. Immunol. 37, 264-270), which is a non-fluorescent compound that freely diffuses into cells. […]
(§2) Calcein acetoxylmethyl ester (AM) is a cell membrane-permeable, non-fluorescent compound that is cleaved by intracellular esterases to form the anionic, cell-impermeable, fluorescent compound calcein. […] Total fluorescence intensity in each well was recorded on a Packard Fusion platereader, and converted to a percent inhibition of signal by subtracting the instrument background and dividing by the average signal obtained when cells were not treated with any compound. […]
(§3) Mean RFU (relative fluorescence units) for untreated cells was calculated by averaging columns 1, 2, and 23 (wells with cells but lacking compounds). The calcein background was calculated by averaging column 24 (wells with calcein, but lacking cells). […]

BJ-TERT/LT/ST cells = assay: Calcein AM viability assay, BJ-TERT/LT/ST cells; details: 16-point two-fold dilution
Description: as §1, §2, §3

[1] = tested on: BJ-TERT/LT/ST/RAS^V12 tumorigenic cells; assay: Calcein AM viability assay, BJ-TERT/LT/ST/RAS^V12 cells; details: BJ-TERT/LT/ST/Ras^v12; 16-point two-fold dilution
Description: as §1, with “suppressors. Engineered cell lines with these genetic elements were used to screen 23,550 compounds, including 20,000 compounds from a combinatorial library, 1,990 compounds from the National Cancer Institute diversity collection, and 1,540 biologically active known compounds that were selected and purchased by Applicant and formatted into a screenable collection.” for “suppressors.”
as §2
Mean RFU (relative fluorescence units) for untreated cells was calculated by averaging columns 1, 2, and 23 (wells with cells but lacking compounds). The calcein background was calculated by averaging column 24 (wells with calcein, but lacking cells). Percentage inhibition of each well was calculated as [1−(RFU−calcein control)/(untreated cell−calcein control)*100]. […]

[2] = tested on: BJ-TERT/LT/RAS^V12/ST cells; assay: Calcein AM viability assay, BJ-TERT/LT/RAS^V12/ST cells; details: 16-point two-fold dilution
Description: as §1, §2, §3

TIP5-TERT cells = assay: Calcein AM viability assay, TIP5-TERT cells; details: 16-point two-fold dilution
Description: as §1, §2, §3

TIP5-TERT/LT cells = assay: Calcein AM viability assay, TIP5-TERT/LT cells; details: 16-point two-fold dilution
Description: as §1, §2, §3

[3] = tested on: TIP5-TERT/LT/ST/Ras^v12 cells; assay: Calcein AM viability assay, TIP5-TERT/LT/ST/Ras^v12 cells; details: 16-point two-fold dilution
Description: as §1, §2, §3

TIP5-TERT/E6E7 cells = assay: Calcein AM viability assay, TIP5-TERT/E6E7 cells; details: 16-point two-fold dilution
Description: as §1, §2, §3

TIP5-TERT/E6E7/ST cells = assay: Calcein AM viability assay, TIP5-TERT/E6E7/ST cells; details: 16-point two-fold dilution
Description: as §1, §2, §3

[4] = tested on: TIP5-TERT/E6E7/ST/Ras^v12 cells; assay: Calcein AM viability assay, TIP5-TERT/E6E7/ST/Ras^v12 cells; details: 16-point two-fold dilution
Description: as §1, §2, §3

engineered cell lines = assay: Selectivity across the engineered cell lines (calcein AM IC50 ratios); details: from selectivity ratio for each subsequent pair of cell lines in a series
Description: To calculate this selectivity score between two cell lines, the IC50 for a compound in one cell line was divided by the IC50 for the same compound in a second cell line. […] The “tumor selectivity score” was calculated for each compound, by dividing the IC50 value for the compound in the parental, primary BJ cells by the IC50 value for the compound in engineered BJ-TERTALT/ST/RAS^V12 cells, containing all four genetic elements required to create tumorigenic cells (Table 1).
Applicants sought to determine the genetic basis of selectivity for each compound. That is, for each compound, they attempted to define the gene or combination of genes responsible for rendering cells sensitive to the compound (Table 1).
The IC50 in primary BJ cells was divided by the IC50 in BJ-TERT/LT/ST/RAS^V12 tumorigenic cells to obtain a tumor selectivity ratio for each compound. The compound selectivity for each genetic element was determined by calculating the selectivity ratio for each subsequent pair of cell lines in a series.

SMILES: Cc1c2ccccc2c(CSC(=N)N)c2ccccc12.Cl [NSC146109]
- concentration required to achieve 50% inhibition of calcein AM staining (IC50) (BJ primary cells): >5 µg/mL
- concentration required to achieve 50% inhibition of calcein AM staining (IC50) (BJ-TERT/LT/ST cells): 2.5 µg/mL
- concentration required to achieve 50% inhibition of calcein AM staining (IC50) [1]: 2.5 µg/mL
- concentration required to achieve 50% inhibition of calcein AM staining (IC50) [2]: 2.5 µg/mL
- concentration required to achieve 50% inhibition of calcein AM staining (IC50) (TIP5-TERT cells): >5 µg/mL
- concentration required to achieve 50% inhibition of calcein AM staining (IC50) (TIP5-TERT/LT cells): >5 µg/mL
- concentration required to achieve 50% inhibition of calcein AM staining (IC50) [3]: 2.5 µg/mL
- concentration required to achieve 50% inhibition of calcein AM staining (IC50) (TIP5-TERT/E6E7 cells): 2.5 µg/mL
- concentration required to achieve 50% inhibition of calcein AM staining (IC50) (TIP5-TERT/E6E7/ST cells): 2.5 µg/mL
- concentration required to achieve 50% inhibition of calcein AM staining (IC50) [4]: 2.5 µg/mL
- Genetic basis of Selectivity (engineered cell lines): non-specific
